Converted amounts (≈) assume the structure as drawn.
Tests used:
p53-Y220C = target: T1, p53-Y220C (Homo sapiens, UniProt P04637, M133L/N239Y/N268D/V203A/Y220C); assay: Differential scanning fluorimetry (DSF); format: binding; settings: 100 μM compound; 8 µM p53-Y220C; read-out: Protein thermal stability ΔTm
T1 construct: (residues 94-312); 6xHis/lipoyl domain/TEV protease cleavage site (N, cleaved yes); made in house; host or cells: E. coli C41
Source text: (§1) We also probed the general effect of 2-SPs on protein stability by using differential scanning fluorimetry (DSF). […] Mutants of the 25 kDa DNA-binding domain of the tumor suppressor p53 are notorious for their reduced thermal stability and denaturation/aggregation propensity.[37] The 56 kDa armadillo domain (ARD) of β-catenin mediates canonical Wnt signaling and plays a central role in embryogenesis and tissue homeostasis.[38] FGE (37 kDa) is the only known activator of human sulfatases, and its stability is susceptible to modification of its cysteines.[39] […]
described.7 Briefly, the N-terminal fusion protein (6xHis/lipoyl domain/TEV protease cleavage site) was overexpressed using E. coli C41 cells in 2xTY medium at 20°C for 16 h and purified using standard Ni-affinity chromatography protocols. […]
was further purified using a Heparin column. Finally, gel filtration chromatography was performed using a Superdex 75 16/60 preparative gel filtration column (GE Healthcare) in a 25 mM KPi (pH 7.2), 150 […]
mM NaCl, and 1 mM TCEP buffer. […]
gel electrophoresis and ESI-MS. […]

[1] = GSH arylation rate constants (NMR; UV-vis for fast warheads); format: physicochemical; settings: for k: Table S8, rate constants obtained at pH = 7; for k change (vs ref): ratio to rate constant of 4q, acceleration (+) or deceleration (-); for k/kref / ΔΔG≠1exp: relative to 4q; for ΔΔG≠1exp: via -RTln(k/kref)
Summary of the method: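 Second-order rate constants k for GSH arylation derived from pseudo-first-order k′ (warhead:GSH 1:10), by normalized NMR integration of the disappearing warhead signal over 6 h; TMSP internal standard. KPi buffer with 5% d6-DMSO, pH 7.0 and 6.5, 20 °C; UV–vis used for fast warheads. Mean of ≥2 independent runs.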

FGE-C341S = target: T2, FGE-C341S (Homo sapiens, UniProt Q8NBK3, C341S); assay: Differential scanning fluorimetry (DSF); format: binding; settings: 100 μM compound; 10 µM FGE; read-out: Protein thermal stability ΔTm
T2 construct: His7 (C); made in house; host or cells: High Five insect cells (baculovirus, pAcGP67B-His7)
T2 sequence (Q8NBK3 34-374 C341S): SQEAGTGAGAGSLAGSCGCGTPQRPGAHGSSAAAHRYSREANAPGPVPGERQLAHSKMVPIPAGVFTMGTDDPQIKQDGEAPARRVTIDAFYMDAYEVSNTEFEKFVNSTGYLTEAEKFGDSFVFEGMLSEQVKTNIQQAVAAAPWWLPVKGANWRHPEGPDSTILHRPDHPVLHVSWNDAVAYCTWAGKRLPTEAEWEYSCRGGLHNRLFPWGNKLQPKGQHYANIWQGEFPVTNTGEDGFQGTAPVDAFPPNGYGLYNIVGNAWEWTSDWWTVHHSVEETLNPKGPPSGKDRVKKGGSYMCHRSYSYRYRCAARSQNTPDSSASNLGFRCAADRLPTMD
Source text: as §1
The cloning of human FGE-WT cDNA into baculoviral transfer vector pAcGP67B-His7 and the generation of the recombinant virus (in Sf9 cells) for expression of C-terminally His-tagged recombinant human FGE in High Five insect cells have been […]
were generated by site -directed PCR mutagenesis using pAcGP67B-FGE-WT-His7 as template and the […]
-3’. All expression plasmids were verified by sequencing of the entire coding region to exclude any undesired PCR -derived errors. The purification method was essentially performed as described in Peng et al., with one modification. The size exclusion […]
chromatography (His -trap) step foll owed directly by a second step purification using the ion -exchange column chromatography (Resource -Q). […]

[2] = Solubility in KPi buffer by NMR with TMSP internal standard; settings: 50 mM KPi aqueous buffer, pH 7, aqueous with cosolvent or surfactant or cyclodextrin, kinetic from dmso stock
Method: Stability and solubility assays
transferred to the NMR instrument for acquisition. 1H spectra (16 scans) were recorded every 10 minutes under water suppression conditions. Following acquisition, spectra were analysed using
TopSpin. Normalised integrations of the pyrimidine aromatic 1H signals in the starting material and
product were plotted as a function of time (s), using the TMSP peak as standard for integral
calibration/normalisation and monitoring of compound solubility, allowing extraction of pseudo first
order reaction rate constants (k’). Second order rate constants (k) were back calculated from the ratio
of the pseudo first counterparts and the concentration of thiol in solution.
was confirmed by formation of a single S-arylated product (characteristic 2-alkylthioether signals),
concomitant with formation of the sulfinic acid by -product (leaving group). Hydrolytic stability
assessment was performed at pH 7.0 and pH 8.2 in a similar manner, in the absence of thiol.
Chemoselectivity. Similarly, but replacing GSH by other amino acids , reference 2-
methylsulfonylpyrimidine 4q in 50 mM KPi (pH 8.2) was incubated with 10 equivalents of either Boc-
Lys-OH, L-ser-OMe, N-Ac-Tyr-OH or Proline were used.

[3] = pH 6.5, measured by UV titrations
[4] = pH 7.0, measured by UV titrations

ΔTm at 100 µM (p53-Y220C) | ΔTm at 100 µM (FGE-C341S) | solubility [2] | SMILES | k [1] | rate constant (k) for the reaction with GSH [1, 3] | rate constant (k) for the reaction with GSH [1, 4] | k change (vs ref) ([1]; pH 7.0) | k/kref [1] | ΔΔG≠1exp [1] | rate constant (k) for the reaction with GSH ([1]; pH 6.5, by NMR, KPi buffer, 5% DMSO-d6) | rate constant (k) for the reaction with GSH ([1]; pH 7.0, by NMR, KPi buffer, 5% DMSO-d6)
0.4 °C | -0.4 ± 0.3 °C | 100 µM (≈ 26.5 µg/mL) | O=[N+]([O-])c1ccc(S(=O)(=O)c2ncccn2)cc1 [5f] | 0.29 M⁻¹ s⁻¹ | 0.2 ± 0.09 M⁻¹ s⁻¹ | 0.29 ± 0.17 M⁻¹ s⁻¹ | +12 fold | 12 | -1.46 kcal/mol |  | 
0.2 °C | 0 °C | ≥ 2000 µM | O=S(=O)(NCc1ccccc1)c1ncccn1 [5g] |  |  |  | -63 fold |  |  | 0.00015 ± 5e-05 M⁻¹ s⁻¹ | 0.0004 ± 0.0001 M⁻¹ s⁻¹
0.4 °C | -0.2 ± 0.3 °C | 100 µM (≈ 32.6 µg/mL) | O=S(=O)(Oc1c(F)c(F)c(F)c(F)c1F)c1ncccn1 [5h] | 24 M⁻¹ s⁻¹ | 5.4 ± 0.72 M⁻¹ s⁻¹ | 24 ± 1.1 M⁻¹ s⁻¹ | +960 fold | 960 | -4.06 kcal/mol |  | 

— PMC10515483, “Structure–Reactivity Studies of 2-Sulfonylpyrimidines Allow Selective Protein Arylation” (Bioconjugate Chemistry, 2023)
